Where a name gives a salt, the structure may show the parent alone. Read-outs that look alike come from different tables or passages of the source.
What was measured:
[1] = molecular target: T1, 14-3-3ζ:BAD-112-136F interactions (Homo sapiens, UniProt P63104); assay: BRET sensor screen for disruption of 14-3-3ζ-Rluc8:BAD-112-136F-mCitrine in living NIH-3T3 cells; type: cell-based, murine; design: inhibition: dose or concentration left out as unconfirmed; BRET reduction on NIH-3T3: unit not given here; conditions: for inhibition / inhibition at 20 µM: NIH3T3, 3 h, read-out: BRET reduction on NIH-3T3
T1 construct: expressed in transfected cells; host or cells: NIH-3T3 fibroblasts, bi-directional pBI-CMV1 plasmid
T1 sequence (P63104 1-245): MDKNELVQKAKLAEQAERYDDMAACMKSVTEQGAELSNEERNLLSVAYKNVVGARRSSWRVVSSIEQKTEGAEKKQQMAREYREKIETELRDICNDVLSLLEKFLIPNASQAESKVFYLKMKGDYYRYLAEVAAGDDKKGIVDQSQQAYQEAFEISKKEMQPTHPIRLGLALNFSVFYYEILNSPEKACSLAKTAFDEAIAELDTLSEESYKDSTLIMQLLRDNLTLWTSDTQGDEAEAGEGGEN
Method in brief: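 NIH-3T3 cells were transfected with the BRET sensor two days beforehand, then replated on poly-L-ornithine-coated plates and grown 24 h at 37 °C. Medium was then replaced with Krebs buffer (pH 7.4). Z′-score was calculated to judge HTS robustness.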

NIH-3T3 cells = assay: Hoechst/propidium iodide cell death assay in NIH-3T3; type: cell-based; conditions: for cytotoxicity at 20 µM: Mus musculus, NIH3T3, 24 h, read-out: Percentage of cell death % 24h NIH3t3
Excerpt: (§1) A high-content imaging system (PerkinElmer; Operetta CLS), was used to quantify cell death and apoptosis by calculating the number of propidium iodide-positive cells relative to Hoechst-positive cells, and the number of Annexin V-positive cells relative to Hoechst-positive cells, respectively.

HT-29 cells = assay: Hoechst/propidium iodide cell death assay in HT-29; type: cell-based, human; conditions: for %Cell death HT-29: time not given; for cytotoxicity at 20 µM: Homo sapiens
Excerpt: as §1

Caco-2 cells = type: cell-based; conditions: for Percentage of cell death % 24h CACO-2: 20 µM; for Percentage of cell death % 48h, Caco-2: 20 μM
Excerpt: as §1

[2] = NIH-3T3 cells, hits from the primary screen
[3] = NIH-3T3 expressing BRET sensor, 20 µM, 3 h
[4] = HT-29, 24 h, 20 µM, 24 h, read-out: Percentage of cell death % 24h HT-29
[5] = HT-29, 48 h, HT-29, 48h, 20 μM, read-out: Percentage of cell death % 48h, HT-29

Row | Compound | inhibition [1, 2] [%] | inhibition at 20 µM [1, 3] [%] | cytotoxicity at 20 µM (NIH-3T3 cells; 20 µM, 24 h) [%] | Percentage of cell death % 48h, NIH3T3 (NIH-3T3 cells) [%] | %Cell death HT-29 (HT-29 cells; HT-29) [%] | cytotoxicity at 20 µM (HT-29 cells; [4]) [%] | cytotoxicity at 20 µM (HT-29 cells; [5]) [%] | Percentage of cell death % 24h CACO-2 (Caco-2 cells) [%] | Percentage of cell death % 48h, Caco-2 (Caco-2 cells) [%] | %Cell death Caco-2 (Caco-2 cells; time not given, text says 48 h) [%] | BRET reduction on NIH-3T3 [1, 2] | BRET reduction on NIH-3T3 [1, 3] | Percentage of cell death % 24h NIH3t3 (NIH-3T3 cells; 20 µM, 24 h) [%] | Percentage of cell death % 24h HT-29 (HT-29 cells; 20 µM, 24 h) [%] | Percentage of cell death % 48h, HT-29 (HT-29 cells; HT-29, 48h, 20 μM) [%] | %Cell death Caco-2 (Caco-2 cells) [%] | inhibition at 20 µM [1] [%] | cytotoxicity at 20 µM (NIH-3T3 cells) [%] | cytotoxicity at 20 µM (HT-29 cells; HT-29, 24 h, read-out: Percentage of cell death % 24h HT-29) [%] | cytotoxicity at 20 µM (HT-29 cells; HT-29, 48 h, read-out: Percentage of cell death % 48h, HT-29) [%]
1 | CC1=C(C(=O)OC(C)C)C(c2cccc([N+](=O)[O-])c2)C(C(=O)OC2CN(C(c3ccccc3)c3ccccc3)C2)=C(N)N1 (stereo not drawn) [Azelnidipine] | 40.2 | 40.2 | 75.6 | 71.6636 | 91.6 | 66.4 | 91.6 | 9.563 | 13.6799 | 13.7 |  |  |  |  |  |  |  |  |  | 
2 | CCc1cc(/C(C)=N/OCc2ccc(C3CCCCC3)c(C(F)(F)F)c2)ccc1CN1CC(C(=O)O)C1 [BAF312 (Siponimod), Siponimod] | 28.7 | 28.7 | 0.738 | 0.7911 |  | 0.683 | 1.58 | 2.6196 | 2.567 |  |  |  |  |  |  |  |  |  |  | 
3 | COC(=O)[C@]12CCC(C)(C)C[C@H]1[C@H]1C(=O)C=C3[C@@]4(C)C=C(C#N)C(=O)C(C)(C)[C@@H]4CC[C@@]3(C)[C@]1(C)CC2 [Bardoxolone methyl] |  |  |  | 72.1638 | 67.5 |  |  |  |  |  | 39.4225 | 39.4225 | 87.0027 | 43.1592 | 67.5309 | 19.2 |  |  |  | 
4 | CCCCCCCCCCCCCCCC[N+](C)(C)C [Cetrimonium Bromide (CTAB), Cetrimonium Bromide] |  |  |  | 66.4515 |  |  |  | 19.5542 | 50.4821 |  | 35.3912 |  |  |  |  |  | 35.4 | 73.5 | 11.5 | 55.4
5 | C[C@@H](NCCCc1cccc(C(F)(F)F)c1)c1cccc2ccccc12 [Cinacalcet HCl] |  |  |  | 69.2945 |  |  |  | 64.4357 | 76.6269 |  | 50.3473 | 50.3473 | 81.0537 | 35.6614 | 79.6038 |  |  |  |  | 
6 | C[C@@H](NCCCc1cccc(C(F)(F)F)c1)c1cccc2ccccc12 [Cinacalcet] | 47.7 | 47.7 | 75.5 | 90.5083 | 70.3 | 30 | 70.3 | 40.5775 | 49.3803 | 49.4 |  |  |  |  |  |  |  |  |  | 
7 | CCN(CC)CCOc1ccc(C(=C(Cl)c2ccccc2)c2ccccc2)cc1 [Clomiphene citrate] | 38.2 | 38.2 | 10.1 | 58.221 | 52.0 | 1.46 | 52 |  |  |  |  |  |  |  |  | 34.7 |  |  |  | 
8 | CCCCCCCCCCCC[N+](C)(C)CCOc1ccccc1 [Domiphen Bromide] | 49 | 49 | 81.2 | 69.1517 |  | 15 | 57.1 | 24.2566 | 80.35 |  |  |  |  |  |  |  |  |  |  | 
9 | CO[C@H]1C[C@H](O[C@H]2[C@H](C)O[C@@H](O[C@@H]3/C(C)=C/C[C@@H]4C[C@@H](C[C@]5(C=C[C@H](C)[C@@H](C6CCCCC6)O5)O4)OC(=O)[C@@H]4C=C(C)[C@@H](O)[C@H]5OC/C(=C\C=C\[C@@H]3C)[C@]54O)C[C@@H]2OC)O[C@@H](C)[C@@H]1O [Doramectin] |  |  |  | 58.749 | 51.6 |  |  |  |  |  | 36.2699 | 36.2699 | 51.7189 | 11.0069 | 51.5756 | 32.3 |  |  |  | 
10 | CCCCc1oc2ccc(NS(C)(=O)=O)cc2c1C(=O)c1ccc(OCCCN(CCCC)CCCC)cc1 [Dronedarone HCl] |  |  |  | 84.99 |  |  |  | 77.641 | 87.4152 |  | 49.6356 | 49.6356 | 85.6589 | 82.9811 | 91.5188 |  |  |  |  | 
11 | CCCCc1oc2ccc(NS(C)(=O)=O)cc2c1C(=O)c1ccc(OCCCN(CCCC)CCCC)cc1 [Dronedarone] | 50.4 | 50.4 | 88.3 | 83.8385 | 79.0 |  | 79 | 69.9639 | 86.906 | 86.9 |  |  |  | 52.4326 |  |  |  |  |  | 
12 | O=C1Nc2ccc(Cl)cc2[C@@](C#CC2CC2)(C(F)(F)F)O1 [Efavirenz] | 30.3 | 30.3 | 41.4 | 7.6471 | 22.0 | 18.5 | 22 |  |  |  |  |  |  |  |  | 20.5 |  |  |  | 
13 | CCCCCCCCCCCC1=C(O)C(=O)C=C(O)C1=O [Embelin] | 37 | 37 | 69.5 | 37.4899 | 51.8 | 19 | 51.8 |  |  |  |  |  |  |  |  | 1.7 |  |  |  | 
14 | Cl.Cl.Fc1ccc(C(c2ccc(F)cc2)N2CCN(C/C=C/c3ccccc3)CC2)cc1 [Flunarizine 2HCl] |  |  |  | 0.5715 |  |  |  | 3.891 | 3.726 |  | 36.4286 | 36.4286 | 0.377 | 0.7908 | 1.34 |  |  |  |  | 
15 | C=CCc1ccc(O)c(-c2ccc(O)c(CC=C)c2)c1 [Honokiol] | 34.2 | 34.2 | 27.4 | 11.7537 |  | 8.61 | 11.1 | 22.4688 | 15.5538 |  |  |  |  |  |  |  |  |  |  | 

From publication PMC12603070, “A high-throughput screening approach to discover potential colorectal cancer chemotherapeutics: repurposing drugs to identify novel disruptors of 14-3-3 proteins” (Cell Death & Disease, 2025)
